Source: patent US20230339919A1, “BENZO OXYGEN-CONTAINING HETEROCYCLIC COMPOUNDS AND MEDICAL APPLICATION THEREOF” (AB PHARMA LTD., priority 2020, published 2023)
Where two headings read alike, the source gives them in different places.

What was measured:
GPR40 = target: T1, GPR40 (Homo sapiens, UniProt O14842); assay: GPR40 agonist activity, FLIPR calcium assay in CHO-K1/GPR40 cells; type: cell-based
T1 construct: expressed in transfected cells; host or cells: CHO-K1
Description: Inoculate CHO-K1/GPR40 cells in 384-well plates at a density of 10,000 cells/well. Cells were incubated at 37° C. for 24 hours in a 5% CO2 incubator. After the experiment, discard the cell culture medium, quickly add […] of 1× FLIPR® Calcium 6 dye containing 2.5 mM/Probenecid to each well and incubate at 37° C. for 2 hours protected from light. For the determination, different concentrations of drug ([…]) were added to the wells and the fluorescence values were read. The fluorescence excitation wavelength was 494 nm and emission wavelength was 516 nm. FLIPR instrument data, EC50 was derived from the formula Y=Bottom+(Top−Bottom)/(1+(EC50/X)^HillSlope).

[1] = Acute Toxicity Study (MTD) by gavage in healthy mice; type: in vivo; conditions: mouse, in vivo, po, 600 mg/kg
healthy mice = assay: as above; type: in vivo; conditions: mouse, in vivo, 600 mg/kg, 5 days
hERG = hERG (Homo sapiens, UniProt Q12809); assay: hERG assay
Chain of hERG (Q12809 whole entry): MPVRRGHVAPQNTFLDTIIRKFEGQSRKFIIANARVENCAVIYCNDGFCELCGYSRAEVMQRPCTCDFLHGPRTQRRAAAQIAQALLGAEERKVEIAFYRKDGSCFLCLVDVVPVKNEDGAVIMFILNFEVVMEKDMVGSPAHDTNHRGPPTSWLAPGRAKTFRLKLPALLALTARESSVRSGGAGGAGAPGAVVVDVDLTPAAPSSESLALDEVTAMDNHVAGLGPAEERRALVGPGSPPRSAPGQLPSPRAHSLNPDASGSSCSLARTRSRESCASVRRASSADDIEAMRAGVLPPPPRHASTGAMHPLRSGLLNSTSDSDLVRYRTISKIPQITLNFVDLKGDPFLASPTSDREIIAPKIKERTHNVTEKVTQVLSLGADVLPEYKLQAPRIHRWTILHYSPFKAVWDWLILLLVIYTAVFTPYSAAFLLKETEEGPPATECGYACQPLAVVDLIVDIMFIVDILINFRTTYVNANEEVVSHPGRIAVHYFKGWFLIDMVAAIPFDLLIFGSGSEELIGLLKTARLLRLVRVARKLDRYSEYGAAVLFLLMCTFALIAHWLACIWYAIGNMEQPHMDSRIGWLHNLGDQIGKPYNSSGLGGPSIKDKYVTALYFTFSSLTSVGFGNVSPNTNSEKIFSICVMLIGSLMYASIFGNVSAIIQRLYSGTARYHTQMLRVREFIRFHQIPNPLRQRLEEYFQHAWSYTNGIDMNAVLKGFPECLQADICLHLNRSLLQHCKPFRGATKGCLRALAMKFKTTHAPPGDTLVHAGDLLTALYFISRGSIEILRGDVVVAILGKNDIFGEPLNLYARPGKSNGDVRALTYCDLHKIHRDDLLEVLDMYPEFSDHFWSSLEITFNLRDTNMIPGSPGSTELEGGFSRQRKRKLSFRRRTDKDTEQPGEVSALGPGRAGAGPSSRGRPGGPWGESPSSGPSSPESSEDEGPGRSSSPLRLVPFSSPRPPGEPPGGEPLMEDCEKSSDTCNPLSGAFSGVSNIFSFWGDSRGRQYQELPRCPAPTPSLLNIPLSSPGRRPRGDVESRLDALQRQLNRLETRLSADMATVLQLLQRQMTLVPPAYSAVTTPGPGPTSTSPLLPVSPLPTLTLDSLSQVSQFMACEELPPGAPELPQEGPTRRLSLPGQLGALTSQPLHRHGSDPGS

[2] = target: BSEP bile salt transporter (Homo sapiens, UniProt O95342); assay: BSEP (Bile Salt Export Pump) assay, taurocholic acid uptake by BSEP vesicles, LC/MS/MS; type: in vitro ADME
Chain of BSEP bile salt transporter (O95342 whole entry): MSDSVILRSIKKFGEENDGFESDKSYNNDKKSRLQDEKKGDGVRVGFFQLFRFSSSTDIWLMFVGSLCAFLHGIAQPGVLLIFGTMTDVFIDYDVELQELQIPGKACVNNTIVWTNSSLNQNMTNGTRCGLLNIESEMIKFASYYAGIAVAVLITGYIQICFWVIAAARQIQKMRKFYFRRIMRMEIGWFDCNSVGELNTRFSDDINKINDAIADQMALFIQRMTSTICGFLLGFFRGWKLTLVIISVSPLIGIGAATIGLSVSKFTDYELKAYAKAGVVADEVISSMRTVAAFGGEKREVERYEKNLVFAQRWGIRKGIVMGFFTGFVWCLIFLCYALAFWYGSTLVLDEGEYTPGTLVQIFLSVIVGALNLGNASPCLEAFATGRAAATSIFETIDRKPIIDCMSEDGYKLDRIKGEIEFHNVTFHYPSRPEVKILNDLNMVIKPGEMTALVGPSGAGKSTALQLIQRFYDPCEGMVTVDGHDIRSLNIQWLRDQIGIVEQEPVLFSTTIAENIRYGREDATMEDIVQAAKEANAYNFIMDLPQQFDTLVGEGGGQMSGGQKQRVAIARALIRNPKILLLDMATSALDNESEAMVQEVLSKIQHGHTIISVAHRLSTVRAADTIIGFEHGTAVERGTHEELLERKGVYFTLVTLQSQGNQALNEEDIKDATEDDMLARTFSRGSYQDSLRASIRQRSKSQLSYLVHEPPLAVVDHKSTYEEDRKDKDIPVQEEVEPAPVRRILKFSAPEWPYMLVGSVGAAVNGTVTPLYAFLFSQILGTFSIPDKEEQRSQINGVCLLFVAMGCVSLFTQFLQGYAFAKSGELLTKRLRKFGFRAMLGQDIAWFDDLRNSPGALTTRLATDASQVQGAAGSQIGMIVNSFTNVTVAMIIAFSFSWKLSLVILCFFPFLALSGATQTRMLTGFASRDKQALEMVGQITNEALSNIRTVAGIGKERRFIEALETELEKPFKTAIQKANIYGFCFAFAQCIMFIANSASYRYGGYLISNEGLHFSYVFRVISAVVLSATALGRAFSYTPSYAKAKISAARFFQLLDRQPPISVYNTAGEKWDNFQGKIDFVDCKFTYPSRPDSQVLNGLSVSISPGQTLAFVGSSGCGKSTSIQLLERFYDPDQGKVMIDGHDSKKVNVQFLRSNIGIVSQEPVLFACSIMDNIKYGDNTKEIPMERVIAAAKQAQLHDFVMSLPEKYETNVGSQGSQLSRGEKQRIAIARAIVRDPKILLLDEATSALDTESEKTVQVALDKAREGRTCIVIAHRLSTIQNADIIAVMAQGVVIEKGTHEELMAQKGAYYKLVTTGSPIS
From the text: In this experiment, we performed a preliminary study on the inhibition of the uptake of the substrate taurocholic acid (TCA) by the BSEP bile salt transporter by LC/MS/MS. The BSEP protein microvesicles with reverse uptake ability were obtained by transfecting Hi5 cells with the BSEP gene, which is capable of TCA uptake and uptake of taurocholic acid. The principle of this experiment is to perform substrate uptake by BSEP protein microcapsules in the presence of energy ATP, the substrate TCA and the candidate compound to be tested, after a certain transit time, the energy, substrate and candidate compound were completely washed out of the microvesicle, and the absorbed substrate TCA was released by lysis of the microvesicle. […] The starting concentration of the sample was 100 mM, diluted in 2-fold gradient with Bravo apparatus, with 11 concentration gradients; the lowest point concentration was 97.65 μM. • 3. Control compound (Glyburide) starting at 20 mM, diluted in 2-fold gradient with Bravo instrument, with 11 concentration gradients; the lowest point concentration was 19.53 μM. • 4. 300 nl of compound was transferred to the middle plate using the ECHO autosampler. • 5. Positive control (HPE) wells and negative control (ZPE) wells were also transferred 300 nl DMSO each. […] Add 14.7 μl of ATP buffer to the corresponding wells of the compound and ZPE, respectively. • 2. Add 14.7 μl of AMP buffer to the corresponding wells of the HPE. • 3. Shake the plate at 25 degrees C. for 10 minutes. • 4. […] Immediately add 5 ul of 0.5M EDTA solution to all wells, and then add 65 μl of Buffer B. All reactions are completed. • 6. Transfer […] of liquid from the end of reaction compound plate to the filter plate using the spiking apparatus. • 7. After placing the liquid receiving plate under the filter plate, use a centrifuge to remove the liquid and discard the liquid received in the receiving plate. • 8. Add 90 μl of buffer B to the filter plate and repeat step 7. Repeat steps 7 and 8 to wash the filter plate a total of three times. • 9. Let the filter plate dry overnight. • 10. Add 81 μl of 80% methanol/water solution to the filter plate the next day. • 11. Apply membrane to the filter plate and vibrate the plate for 15 minutes. • 12. Place a new liquid receiver plate under the filter plate and centrifuge for 5 min to filter all the liquid from the filter plate into the receiver plate. • 13. Add 13.5 μl of internal standard solution to each well of the liquid receiver plate and seal the plate with a sealing film. • 14. Using LC/MS/MS, detect the content of taurocholic acid in the receiver plate.

[3] = GPR40 agonist activity range (EC50), CHO-K1/GPR40 cells, read-out: GPR40 activity
[4] = Table 4, read-out: GPR40 Activity (hEC50)
[5] = read-out: GPR40 activity (EC50)
[6] = inhibition of TCA uptake by BSEP vesicles, read-out: Potential inhibitory side effects BSEP (IC50)

T1 sequence (O14842 whole entry): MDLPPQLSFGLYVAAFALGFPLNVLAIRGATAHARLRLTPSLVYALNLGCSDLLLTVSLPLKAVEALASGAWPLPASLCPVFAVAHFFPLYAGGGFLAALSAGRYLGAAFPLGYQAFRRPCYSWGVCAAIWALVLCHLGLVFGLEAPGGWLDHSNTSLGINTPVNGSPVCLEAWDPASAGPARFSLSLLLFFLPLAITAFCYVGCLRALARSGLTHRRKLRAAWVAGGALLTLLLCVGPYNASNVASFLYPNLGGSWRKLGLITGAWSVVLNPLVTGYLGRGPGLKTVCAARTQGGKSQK

| Compound | EC50 (GPR40; [3]) [nM] | further results |
| --- | --- | --- |
| O=C(O)CC1COc2cc(OCc3cccc4c3OCO4)ccc21 (centres unmarked) [IIb-01] | > 100 |  |
| O=C(O)CC1COc2cc(OCc3cc(Br)cc4c3OCO4)ccc21 (centres unmarked) [IIb-02] | > 100 |  |
| O=C(O)CC1COc2cc(OCc3c(Br)ccc4c3OCO4)ccc21 (centres unmarked) [IIb-03] | > 100 |  |
| O=C(O)CC1COc2cc(OCc3ccc4c(c3)OCO4)ccc21 (centres unmarked) [IIb-04] | 10 to 100 |  |
| O=C(O)CC1COc2cc(OCc3cc(Cl)cc4c3OCO4)ccc21 (centres unmarked) [IIb-05] | 10 to 100 |  |
| O=C(O)CC1COc2cc(OCc3cc(F)cc4c3OCO4)ccc21 (centres unmarked) [IIb-06] | 10 to 100 |  |
| O=C(O)C[C@@H]1COc2cc(OCc3cc(F)cc4c3OCO4)ccc21 [IIb-07] | 10 to 100 |  |
| O=C(O)CC1COc2cc(OCc3c(Br)ccc4c3OCCO4)ccc21 (centres unmarked) [IIb-08] | > 100 |  |
| O=C(O)CC1COc2cc(OCc3cc(Br)cc4c3OCCO4)ccc21 (centres unmarked) [IIb-09] | > 100 |  |
| O=C(O)CC1COc2cc(OCc3cc(Cl)cc4c3OCCO4)ccc21 (centres unmarked) [IIb-10] | > 100 |  |
| O=C(O)CC1COc2cc(OCc3cc(F)cc4c3OCCO4)ccc21 (centres unmarked) [IIb-11] | > 100 |  |
| O=C(O)CC1COc2cc(OCc3ccc(F)c4c3OCO4)ccc21 (centres unmarked) [IIb-12] | > 100 |  |
| O=C(O)CC1COc2cc(OCc3c(F)ccc4c3OCO4)ccc21 (centres unmarked) [IIb-13] | > 100 |  |
| O=C(O)CC1COc2cc(OCc3cc(C(F)(F)F)cc4c3OCO4)ccc21 (centres unmarked) [IIb-14] | 10 to 100 |  |
| N#Cc1cc(COc2ccc3c(c2)OCC3CC(=O)O)c2c(c1)OCO2 (centres unmarked) [IIb-15] | 10 to 100 |  |
| O=C(O)CC1COc2cc(OCc3ccc(Br)c4c3OCO4)ccc21 (centres unmarked) [IIb-16] | > 100 |  |

| Compound | EC50 (GPR40; [3]) [nM] | further results |
| --- | --- | --- |
| O=C(O)CC1COc2cc(OCc3cccc4c3OC(F)(F)O4)ccc21 (centres unmarked) [IIb-17] | 10 to 100 |  |
| O=C(O)C[C@@H]1COc2cc(OCc3cccc4c3OC(F)(F)O4)ccc21 [IIb-18] | < 10 | Ames assay result (Ames assay): no relevant side effects; LD50 at 5 days [1]: > 600 mg/kg; survival rate of the mice after administration (healthy mice): 100%; EC50 (GPR40; [4]): 7.9 nM; EC50 (GPR40; [5]): < 10 nM; IC50 (hERG): > 30000 nM; IC50 [2, 6]: 162000 nM; IC50 ([2]; read-out: BSEP): > 25000 nM |
| O=C(O)CC1COc2cc(OCc3cccc4c3OCCO4)ccc21 (centres unmarked) [IIb-19] | > 100 |  |
| CC1(C)Oc2cccc(COc3ccc4c(c3)OCC4CC(=O)O)c2O1 (centres unmarked) [IIb-20] | 10 to 100 |  |
| O=C(O)CC1COc2cc(OCc3cc(Br)cc4c3OC(F)(F)O4)ccc21 (centres unmarked) [IIb-21] | 10 to 100 |  |
| CC1(C)Oc2cc(Br)cc(COc3ccc4c(c3)OCC4CC(=O)O)c2O1 (centres unmarked) [IIb-22] | > 100 |  |
| O=C(O)CC1COc2cc(OCc3cc(Cl)cc4c3OC(F)(F)O4)ccc21 (centres unmarked) [IIb-23] | 10 to 100 |  |
| O=C(O)CC1COc2cc(OCc3ccc(Cl)c4c3OC(F)(F)O4)ccc21 (centres unmarked) [IIb-24] | > 100 |  |
| O=C(O)C[C@@H]1COc2cc(OCc3cc(Cl)cc4c3OCO4)ccc21 [IIb-25] | < 10 | Ames assay result (Ames assay): no relevant side effects; LD50 at 5 days [1]: > 600 mg/kg; survival rate of the mice after administration (healthy mice): 100%; EC50 (GPR40; [4]): 9.2 nM; EC50 (GPR40; [5]): < 10 nM; IC50 (hERG): > 30000 nM; IC50 [2, 6]: 57700 nM; IC50 ([2]; read-out: BSEP): > 25000 nM |
| O=C(O)CC1COc2cc(OCc3cccc4c3OC(F)(F)O4)c(Br)cc21 (centres unmarked) [IIb-26] | > 100 |  |
| O=C(O)CC1COc2c1cc(Br)c(OCc1cccc3c1OC(F)(F)O3)c2Br (centres unmarked) [IIb-27] | > 100 |  |
| O=C(O)CC1COc2cc(OCc3cccc4c3OC(F)(F)O4)c(Cl)cc21 (centres unmarked) [IIb-28] | > 100 |  |
| O=C(O)CC1COc2cc(OCc3cccc4c3OC(F)(F)O4)c(F)cc21 (centres unmarked) [IIb-29] | > 100 |  |
| O=C(O)C(Br)C1COc2cc(OCc3cccc4c3OC(F)(F)O4)ccc21 (centres unmarked) [IIb-30] | > 100 |  |
| NC(C(=O)O)C1COc2cc(OCc3cccc4c3OC(F)(F)O4)ccc21 (centres unmarked) [IIb-31] | > 100 |  |
